We go through one molecule from patent US20130005802A1, “TREATMENT OF WNT/FRIZZLED-RELATED DISEASES” (priority 2009, published 2013).

Data set [1] concerns β-catenin. The data set can be described thus: Immunoblot of Wnt3A-stimulated β-catenin stabilization in U2OS cells. It counts as cell-based. The text has this:
After treatment, cytosolic fraction as well as cellular membrane were isolated as described (Mikels, A. J., et al. PLoS Biol 2006, 4, e115, incorporated herein by reference in its entirety). Immunoblots using β-catenin or Dishevelled-2 antibody were used to detect the respective protein levels in cytosol or on membrane, with β-actin immunoblots used for loading controls.
The accumulation of cytosolic β-catenin is a measure of canonical Wnt signaling (Mikels, A. J., and Nusse, R. PLoS Biol 2006, 4, e115, incorporated herein by reference).
For orientation: In western blotting, separated proteins are transferred to a membrane and probed.

Another data set has as its system HCT116 tumors. The data set can be described thus: In vivo anti-tumor effect, HCT116 tumors. Set-up: species or system NOD/SCID mice. The method, then:
HCT116 colon cancer cells were harvested from flasks with 0.05% Trypsin/EDTA, washed with PBS, and resuspended with Hanks buffered solution at 5×10^6 cells/100 μL concentration. CRC explants (CRC039) cultured in vitro were harvested with the same procedure, and mixed with equal volume of Matrigel to make 1×10^6 cells/100 μL concentration. A hundred μL of cell suspension was inoculated to the flank of NOD/SCID mice 4 days before the start of treatment. […] Tumor size was measured 3 times a week until mice were sacrificed.
HCT116 colon cancer cells were harvested from flasks with 0.05% Trypsin/EDTA and resuspended with Hanks buffered solution at 5×10^6 cells/100 μL concentration. CRC explants (CRC039) cultured in vitro were harvested with the same procedure and mixed with equal volume of Matrigel to make 1×10^6 cells/100 μL concentration. The cell suspension (100 μL) was inoculated into the flank of NOD/SCID mice 4 days before the start of treatment. […] Initially, 2 weeks of treatment was planned for both HCT116 and CRC039. However, treatment was extended to 3 weeks for CRC039 cells because the […] grew much slower than the HCT116 cell line. Tumor size was measured 3 times a week until mice were euthanized.

Data set [2] has as its system β-catenin. The data set can be described thus: Immunohistochemistry of β-catenin in treated tumors. It counts as in vivo, NOD/SCID mice. The following applies: 200 mg/kg, 2 or 3 weeks. The method, then: Paraffin-embedded specimens were cut into 4 μm-thick of sequential sections. After dewaxing in xylene and rehydrating stepwise in ethanol, sections were subjected to heat-induced antigen retrieval. Endogenous peroxidase activity was blocked with 3% H2O2, and non-specific binding was blocked with non-immune horse sera. Sections were then incubated with primary antibodies overnight at 4C. Anti-β-catenin (sc-65483, Santa Cruz Biotechnology, Inc., Santa Cruz, Calif.) and anti-Dvl-2 (sc-8026, Santa Cruz Biotechnology, Inc., Santa Cruz, Calif.) monoclonal antibodies were used at (1:50) dilution. After rinsing the sections were incubated with the biotinylated secondary antibody (1:200 dilution; Dakopatts, Copenhagen, Denmark) for 30 min at room temperature and then with the avidin-biotin peroxidase complex from the Vector Elite ABC kit (Vector Laboratories, Burlingame, Calif.) according to the manufacturer's instructions. Visualization was achieved using 3,3′-diaminobenzidine tetrahydrochloride and H2O2. Specimens were counterstained with hematoxylin.
NOD/SCID mice were implanted with colorectal cancer explants or cell lines. […] Tumors were excised and fixed with 10% neutralized, buffered formalin. Paraffin-embedded specimens were cut into 4 μm-thick of sequential sections. After dewaxing and rehydration, heat-induced antigen retrieval was performed. […]

In another data set the test system is HT29 cells. The data set can be described thus: MTT assay, HT29. It counts as cell-based. The protocol:
(§1) AsPC-1 tumor cells were cultured with T cells at a 1:5 ratio for 7 days in the presence of MEDI-565 or Cont BiTE (100 ng/mL). On day 7, floating cells were discarded and only adherent AsPC-1 cells were harvested with 0.05% trypsin/EDTA and washed with PBS three times. 1×10^4 AsPC-1 tumor cells were added to each well of 96 well flat bottom plates in 200 μL of complete RPMI1640 medium. The cells were allowed to adhere to the plates overnight at 37° C. (day 0) and were further incubated for 1, 2, 4 or 7 days. 20 μL of 10×MTT (3-[4,5-dimethylthiazol-2-yl]-2,5-diphenyl-tetrazolium bromide, 5 mg/mL) solution was added to each well, and incubated at 37° C. for 2 hr. The adherent cells were lysed with 150 μL of dimethyl sulfoxide (DMSO) and the optical density (OD) at 550 nm was measured.
Colorectal cancer cell lines were incubated in 96-well flat-bottomed plates at 5,000 cells per well in 200 μL of complete RPMI1640 medium. The cells were allowed to adhere to the plates overnight at 37° C. (day 0). […] Then 20 μL of 10×MTT solution was added to each well and incubated at 37° C. for 2 hr. The adherent cells were lysed with 150 μL of DMSO, and then optical density (OD) at 562 nm was measured. DMSO or culture medium was used as a control.
MTT assay was performed at each time point.
For orientation: Formazan colour is commonly taken as a measure of viable cells.

For another data set, the system named is CRC explants. The data set can be described thus: MTT assay, CRC explants. It counts as cell-based. The following applies: 72 hr. The protocol: as §1
The cells were allowed to adhere to the plates overnight at 37° C. (day 0). […] Then 20 μL of 10×MTT solution was added to each well and incubated at 37° C. for 2 hr. The adherent cells were lysed with 150 μL of DMSO, and then optical density (OD) at 562 nm was measured. DMSO or culture medium was used as a control.
An MTT assay was performed after 72 hr incubation. After cell lysis with DMSO, the optical density (OD) at 562 nm was measured.

For `O=C(Nc1ccc([N+](=O)[O-])cc1Cl)c1cc(Cl)ccc1O` [niclosamide], the “Wnt3A-stimulated cytosolic β-catenin stabilization” value with β-catenin [1] (7.5 μM, cytosol) is on record as “prevented”. Further, the “membrane-bound β-catenin levels” value in the data set with β-catenin [1] (7.5 μM, membrane) is given as “relatively unchanged”. In addition, the “concentration range of the inhibitory effect on β-catenin stabilization” value with β-catenin [1] (immunoblot, n=3) was in the range of 1 to 7.5 µM. Besides, the IC50 with β-catenin [1] (immunoblot, n=3, read-out: half maximal inhibition of Wnt3A signaling (β-catenin stabilization)) was roughly 1000 nM. The “tumor volume vs control” value in the data set with HCT116 tumors (200 mg/kg gavage, after two weeks) is given as “less than half a volume”. Besides, in the data set with HCT116 tumors (10, 100 or 200 mg/kg gavage, 6 days per week, 2 weeks), the tumor growth result is reported as “significantly inhibited the growth”. Also, the “cytoplasmic expression of β-catenin in tumors vs control” value in the data set on β-catenin [2] was “decreased levels”. In the data set with HT29 cells (0.4, 2, 10 μM tested, 72 hr), the “concentration showing anti-proliferation effect” value stood at 10 µM. In the data set with HT29 cells (0.4, 2, 10 μM, 24-96 hr), the “% proliferation over time” value is given as “insensitive”. For the same molecule, in the data set with CRC explants (5 μM), the “killing of CRC020 explant cells” value is “killed significantly”. The “cytotoxicity (MTT, OD 562 nm) in 8 CRC explants” value in the data set with CRC explants (0.4, 2, 10 μM) was “cytotoxic effects”.
